Measurements from PMC6452685, “Lysyl-tRNA synthetase as a drug target in malaria and cryptosporidiosis” (Proceedings of the National Academy of Sciences of the …, 2019).

What was measured:
Pf(NF54) = test: Drug-sensitive P. falciparum NF54, [3H]-hypoxanthine incorporation; format: cell-based; conditions: Plasmodium falciparum, drug-sensitive strain
Excerpt: (§1) 3.2 Cytotoxicity Studies (Dundee)
(§2) In vi t ro cy totox i ci ty s tudies can be ca rri ed out us i ng Hep G 2 (Human C aucas i an hepatocy te ca rci noma, ECACC cat. no. 850 114 30) us ed as i ndi cators f or g eneral mammal i an cel l tox i ci ty . […]
(§3) 3.3 In vitro Cell Assay D ata Analysis (Du ndee) […]
(§4) as 0%. Qual i ty control c ri teri a for passi ng pl ates were as fol l ow s : Z’ > 0.
(§5) < 15 . T he f ormula used to calculate Z’ is 1- 3´ (St D e v _ hi gh + St D e v_ low) . […]
(§6) Al l EC50 Curve fitti ng was undertaken usi ng XLFi t versi on 4.2 usi ng Model 205 wi th the foll owi ng 4 paramet ri c equat i on: A + (?-A) ,where A=% i nhi bi ti on at bo ttom, B=% i nhi bi ti on at top, C= EC , […]
(§7) D= slope, x= inhibitor concentration a nd y= % inhibition. […]
(§8) was fixed to 100 only when at least 50% of inhibition was reached. […]
(§9) Hoffmann-La Ro che Ltd) a nd resi stant strai ns K1 and TM90C2B (fr om the Malaria Research an d Reference Reag ent Res ou rce C enter, accu rate d es cri pti ons of the g eneti c backg roun ds of thes e strains can be obtained at http://www.beiresources.org) were cultivated in a variation of the medium prev i ous l y des cri bed (5, 6), c onsi sti ng of RPMI 16 40 su ppl emented wi th 0.5% ALBUMAX® II, 25 m M Hepes , 25 mM NaHC O3 (pH 7. […] The re s ul t s were recorded and expressed as a percentage of the untreated controls. […]

[1] = tested on: P. berghei liver schizonts; test: P. berghei liver schizonts (luciferase); format: cell-based; conditions: Plasmodium berghei
Experimental: Thi s i s bas ed on met hods prev i ous l y report ed (12 ). In bri ef, HepG 2-A1 6-CD81EGFP cel l s were cul tured at 3 7 °C i n 5% C O2 in DMEM me dia. For both P. berghei-Luc and HepG2 cytotoxi ci ty assays, 3x 10**3 of the HepG2-A16-CD81EGFP20 cells in 5 µl of assay medi um (DMEM wi thout Phenol Red (Li fe Techn ol ogi es, CA), 5% FBS, and 5x Pen Stre p Gl utami ne (Li fe Techn ol ogi es, CA)) at concentrati o n 6x 10**5 cel l s /ml were s eeded i n white s oli d bottom 153 6-well pl at es (cus t om G NF mol d ref# 7891 73-F, Grei ner Bi o-One), 2 0-26 h prior to sporozoites infection. […]
pri or t o i nfect i on 5 0 nl of comp ounds i n 1:3 s eri al di l ut i ons in DMSO (0. 5% fi nal DMSO concentrati on per w el l ) w ere t rans ferred w i t h an Acous ti c Trans fer Sy s t em (ATS) (Bi os ero) t o the cells. Atovaquone (5µ M) and pu romy ci n (1 0 µM) at a single concentration were used as pos i t i v e cont rol s for the Pbluc and He pG 2tox , res pecti v el y . 0. 5% DMSO was us ed as neg ati v e control for both as s ay s . […]
[…] Immediately after addition of the luminescence reagent, the luminescence was measured by the Env i s i on M ul t il abel Reader (Perk i nEl mer). […]
Thi s is a modification of the previously reported method (13). […]

Pf(K1) = test: Drug resistant P. falciparum K1, [3H]-hypoxanthine incorporation; format: cell-based; conditions: Plasmodium falciparum, chloroquine-resistant
Excerpt: as §1, §2, §3, §4, §5, §6, §7, §8, §9

C. hominis (TU502) = test: Activity against Cryptosporidium hominis; format: cell-based
Experimental: Thi s i s bas ed on methods previ ousl y reported (14). Mature P. falciparum stage V gametocytes (NF54)
were incubated with test compound for 24 h at 3 7°C i n 384-well plates containing complete culture
medi um (RPMI 1640, 25 mM HEPES, 2 g/l D-glucose, 2 g/l sodium bicarbonate, 50 mg/l
Gametogenesis was triggered by dis pens i ng 10 µl ookinete medium (RPMI 1640, 25 mM HEPES, 2 g/l
D-glucose, 2 g/l sodium bicarbonate, 50 mg/l hy pox ant hi ne, 100 µM xanthurenic acid) also
contai ni ng 2. 7 µg/ml anti-Pfs25-Cy3 into each well and cooling the plate on a metal block at 4 °C fo r
4 mi n. Fi fteen s l ater male gametogenesis was recorded by b ri ghtfi el d i magi ng usi ng ti m e s 6 object i v e
and then the pl ate stored at 2 6 °C for a fu rther 24 h to allow female gametes to develop. Female
gamete formation was assessed by fluorescence m icroscopy using x6 objective to identify anti-Pfs25-
gentian violet negative and positive controls.
3.1 3 Act iv it y a gains t Cry pt os pori diu m h omi nis (CALIBR)
Thi s i s bas ed on methods previ ousl y reported (10).

PfKRS1 = conditions: cited from earlier work

Compound	EC50 (Pf(NF54)) [nM]	EC50 [1] [nM]	EC50 (Pf(K1)) [nM]	EC50 (C. hominis (TU502)) [nM]	selectivity for cytosolic PfKRS1 compared with HsKRS (PfKRS1) [fold]
O=C(NCC1(O)CCC(F)(F)CC1)c1cc(=O)c2cc(F)ccc2o1 [Compound 5]	390	900	510	6000	
C[C@H]1CCC[C@H](C[C@H]2Cc3cc(O)cc(O)c3C(=O)O2)O1 [Compound 1, cladosporin, reference compound]					> 100
